Laboratory results from the NIST ThermoML archive (doi:10.1021/acs.jced.9b00348).
± gives the expanded uncertainty stated by the source.

Assay: molar heat capacity at constant pressure
Details: 100 kPa, DSC

[F][Th]([F])([F])[F] [thorium tetraluoride]
molar heat capacity at constant pressure (1278 K, Crystal): 145 ± 21 J/K/mol
molar heat capacity at constant pressure (1478 K, Liquid): 168 ± 21 J/K/mol
